Molecules are shown by their SMILES. Where “and” joins values, the source holds several entries; their conditions need not be identical. Identical values can stand only once. Counter-ions that a name gives are not always drawn. Like-named read-outs stand apart in the source and are kept apart here. Where only a bound is given, the exact number is not on record here.

A word on the EC50: it is the concentration that produces a half-maximal response. Read a low EC50 as a more potent agent.

The subject of series [1] is SUDHL10. The experiment in a line: Induction of caspase-3/7 activity (Caspase-Glo 3/7), SUDHL10. The class given is cell-based. The conditions noted are these: caspase-3/7 induction, SUDHL10 cells, 3 h treatment; median. In a few lines: (§1)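 Apoptosis induction measured as caspase-3/7 activity (Caspase-Glo 3/7) in DLBCL lines after 3 h treatment at 37 °C; EC50 derived relative to the reference compound's maximal induction, with C0 fixed at 1.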

For series [2], the system named is SUDHL5. Put plainly: Induction of caspase-3/7 activity (Caspase-Glo 3/7), SUDHL5. The class given is cell-based. The conditions noted are these: caspase-3/7 induction, SUDHL5 cells, 3 h treatment; median. In a few lines:
as §1

In another series the test system is A2780. Put plainly: Anti-proliferative effect (CellTiter-Glo, 72 h), A2780. Type of series: cell-based. As to conditions: A2780 cells, median, read-out: IC50 antiproliferation assay A2780 [M] (median). In a few lines: (§2)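 After seeding, one plate is read right away by CellTiter-Glo luminescence to fix time zero. The treated plates stay at 37 °C in humidified air for 72 h and are then measured with the same reagent and 10 min incubation.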
In general terms: ATP-based viability assays read luminescence as a measure of living cells.

In series [3] the test system is SUDHL10. Put plainly: Induction of cytotoxicity (CellTiter-Glo, 5 h), SUDHL10. As to conditions: read-out: Cytotox SUDHL10 [M] (median), SUDHL10 cells, cytotoxicity induction, CellTiter-Glo, median.
Series [4] has as its system SUDHL5. The experiment in a line: Anti-proliferative effect (CellTiter-Glo, 72 h), SUDHL5. The class given is cell-based. As to conditions: SUDHL5 cells, antiproliferation, median, read-out: Antiproli SUDHL5 [M] (median). A digest of the protocol:
as §2

The test system of series [5] is SUDHL5. Put plainly: Induction of cytotoxicity (CellTiter-Glo, 5 h), SUDHL5. The conditions noted are these: read-out: Cytotox SUDHL5 [M] (median), SUDHL5 cells, cytotoxicity induction, CellTiter-Glo, median.
The target in a further series is MCL-1 (Homo sapiens, UniProt Q07820). Put plainly: Protein-protein interaction assay MCL-1/Noxa BH3 peptide (MCL-1 assay), TR-FRET. The class given is binding. As to conditions: MBP-MCL-1 / Noxa BH3-derived peptide, median. In a few lines:
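Inhibition values were normalized between DMSO controls with all reagents and controls lacking MCL-1. The binding competition used 1 nM MBP-MCL-1 in pH 7 Tris buffer containing 50 mM KF and 100 mM NaCl, with a 10 min compound preincubation at 22 °C.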
(TR-FRET usually uses a lanthanide donor and a delayed reading to cut background.)

In a further series the test system is MV-4-11. Put plainly: Anti-proliferative effect (CellTiter-Glo, 72 h), MV-4-11. Type of series: cell-based. The conditions noted are these: MV-4-11 cells, median, read-out: IC50 antiproliferation assay MV-4-11 [M] (median). A digest of the protocol: as §2

Chain of MCL-1 (Q07820 whole entry): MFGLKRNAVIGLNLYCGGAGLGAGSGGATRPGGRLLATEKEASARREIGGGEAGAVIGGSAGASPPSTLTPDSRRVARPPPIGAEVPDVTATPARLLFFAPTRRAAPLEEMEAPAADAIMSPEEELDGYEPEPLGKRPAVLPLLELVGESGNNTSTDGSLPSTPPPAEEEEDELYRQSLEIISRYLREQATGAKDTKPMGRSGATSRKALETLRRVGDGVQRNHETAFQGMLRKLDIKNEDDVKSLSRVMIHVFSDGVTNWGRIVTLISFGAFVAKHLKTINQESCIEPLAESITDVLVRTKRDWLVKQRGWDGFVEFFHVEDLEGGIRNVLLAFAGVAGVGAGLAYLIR

With `Cc1c2c(nn1CCN1CCOCC1)COCCCCn1c(C(=O)O)c(CCCOc3cccc4cc(F)ccc34)c3cccc-2c31` (single isomer, unassigned) [Example 286, (−)-7-{3-[(6-fluoronaphthalen-1-yl)oxy]propyl}-3-methy-2-[2-(morpholin-4-yl)ethyl]-2,10,11,12,13,15-hexahydropyrazolo[4′,3′:9,10][1,6]oxazacycloundecino[8,7,6-hi]indole-8-carboxylic acid-N-ethylethanamine Salt], the half-maximal effective concentration (EC50) in the series with SUDHL10 [1] was above 33 µM; in the series with SUDHL5 [2], 11.8 µM. Further, the IC50 in the series with A2780 was 1.26e-05 M; in the series with SUDHL10 [3] (5 h incubation), above 3.3e-05 M; in the series on SUDHL5 [4] (72 h incubation), 5.11e-06 M; in the series with SUDHL5 [5] (5 h incubation), 1.2e-05 M; against MCL-1, 0.0272 µM; with MV-4-11, 1.73e-05 M.
For `CCc1nn(C)c2c1-c1cccc3c(CCCOc4cccc5cc(F)ccc45)c(C(=O)O)n(c13)CCCCOC2` (single isomer, unassigned) [Example 289, (−)-3-ethyl-7-{3-[(6-fluoronaphthalen-1-yl)oxy]propyl}-1-methyl-1,10,11,12,13,15-hexahydropyrazolo[4′,3′:9,10][1,6]oxazacycloundecino[8,7,6-hi]indole-8-carboxylic Acid], the EC50 in the series with SUDHL10 [1] and in the series on SUDHL5 [2] was above 33 µM in each case. Besides, the IC50 in the series with A2780 was 2.23e-05 M; with SUDHL10 [3] (5 h), above 3.3e-05 M; with SUDHL5 [4] (72 h) it was 1.05e-05 M; in the series on SUDHL5 [5] (5 h), 2.9e-05 M and > 3.3e-05 M; on MCL-1 it was 0.106 µM; with MV-4-11 it was 1.89e-05 M.
Turning to `Cc1ccc2c(CCCOc3cccc4cc(F)ccc34)c(C(=O)O)n3c2c1-c1c(nn(CCN2CCOCC2)c1C)COCCCC3` (single isomer, unassigned) [Example 293, (+)-7-{3-[(6-fluoronaphthalen-1-yl)oxy]propyl}-3,4-dimethyl-2-[2-(morpholin-4-yl)ethyl]-2,10,11,12,13,15-hexahydropyrazolo[4′,3′:9,10][1,6]oxazacycloundecino[8,7,6-hi]indole-8-carboxylic acid-N-ethylethanamine Salt], the EC50 in the series on SUDHL10 [1] came to 0.947 µM; with SUDHL5 [2], 0.309 µM. For the same molecule, the IC50 with A2780 (Homo sapiens, A2780, 72 h) was determined as 1.08e-05 M; in the series with SUDHL10 [3] (5 h) it was 9.88e-07 M; with SUDHL5 [4] (72 h) it was 6.43e-07 M; with SUDHL5 [5] (5 h), 4.23e-07 M; against MCL-1, 0.000676 µM; in the series on MV-4-11 it was 2.08e-06 M.
As for `Cc1ccc2c(CCCOc3cccc4cc(F)ccc34)c(C(=O)O)n3c2c1-c1c(nn(CCN2CCOCC2)c1C)COCCCC3` (single isomer, unassigned) [Example 294, (−)-7-{3-[(6-fluoronaphthalen-1-yl)oxy]propyl}-3,4-dimethyl-2-[2-(morpholin-4-yl)ethyl]-2,10,11,12,13,15-hexahydropyrazolo[4′,3′:9,10][1,6]oxazacycloundecino[8,7,6-hi]indole-8-carboxylic acid-N-ethylethanamine Salt], the EC50 with SUDHL10 [1] stood at 10.8 µM; in the series with SUDHL5 [2], 6.95 µM. The IC50 in the series with A2780 amounted to 1.88e-05 M; in the series with SUDHL10 [3] (5 h), 1.08e-05 M; in the series on SUDHL5 [4] (72 h), 5.96e-06 M; in the series on SUDHL5 [5] (5 h), 5.95e-06 M; against MCL-1 it was 0.00579 µM; with MV-4-11, 1.53e-05 M.

Values taken from patent publication US10981932B2, “Macrocyclic indole derivatives” (Bayer Aktiengesellschaft, priority 2016, dated 2021).
